According to US20190231668A1, “SKIN WHITENING COMPOSITION CONTAINING MANNOSYLERYTHRITOL LIPID” (AMOREPACIFIC CORPORATION, priority 2016, published 2019):

System: B16F10 (melanoma cell) cell line
Assay: Inhibitory effect on melanin production in α-MSH-stimulated melanin pigment producing cells
Type: cell-based, mouse
Conditions: medium with α-MSH (200 nM) and 100 ppm of substance, untreated medium = 100%, α-MSH alone about 270%
Description: The inhibitory effect on melanin production in melanin pigment producing cells by the mannosylerythritol lipid (hereinafter referred to as MEL) was measured. As the cell line and serum, the mouse-derived B16F10 (melanoma cell) cell line purchased from ATCC and FBS (Cat No. 30-2020) were used. The DMEM (Cat No. 11995) required for cell culture and antibiotic-antifungal agent (Cat No. 15240-062) were purchased from Invitrogen company (GIBCO). The cell line was cultured under the conditions of 37° C., 10% CO2. […] Kojic acid was used as a positive control. After the fifth day, 1N NaOH was added and reacted at 60° C. for 2 hours to dissolve the melanin contained in the cells, and then measured the amount of melanin by measuring the absorbance at 405 nm. […] It was confirmed that the expression amount of melanin pigment by B16F10 cells in the medium supplemented with α-MSH and 100 ppm of kojic acid is about 110%, and thus the expression of melanin pigment was inhibited, and it was confirmed that the expression amount of melanin pigment in the medium supplemented with α-MSH and 1 ppm of MEL was about 180%, and the expression amount of melanin pigment in the medium supplemented with α-MSH and 5 ppm of MEL was about 90% and thus the expression of melanin pigment was inhibited.

## O=c1cc(CO)occ1O [kojic acid]
  expression amount of melanin pigment: about 110%
